The results in this text go back to patent publication US7994185B2, “Benzene sulfonamide thiazole and oxazole compounds” (Glaxo Smith Kline LLC, priority 2008, dated 2011).

Assay [1] deals with Human colon tumor cells (Colo205). The assay is described as follows: Cell growth inhibition assay (CellTiter-Glo), Colo205. Type of assay: cell-based. The method in brief:
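Growth is estimated from total cellular ATP measured by CellTiter-Glo luminescence after a 3-day compound exposure at 37 °C. Compounds are tested as 1:3 dilution series in 0.2% final DMSO, with inhibition expressed relative to vehicle-treated wells.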

In assay [2] the test system is Human melanoma cancer cells (SK-MEL-28). The assay is described as follows: Cell growth inhibition assay (CellTiter-Glo), SK-MEL-28. In kind it is cell-based. For orientation: In ATP-based viability assays light output follows the ATP content of the culture.
In assay [3] the target is T1, BRAFV600E full-length (amino acids 2-766) (Homo sapiens, UniProt P15056, V600E).
T1 construct: His6-tagged BRAFV600E full-length (amino acids 2-766); His6; made in house; host or cells: baculovirus expression system (insect cells)
T1 sequence (P15056 2-766 V600E): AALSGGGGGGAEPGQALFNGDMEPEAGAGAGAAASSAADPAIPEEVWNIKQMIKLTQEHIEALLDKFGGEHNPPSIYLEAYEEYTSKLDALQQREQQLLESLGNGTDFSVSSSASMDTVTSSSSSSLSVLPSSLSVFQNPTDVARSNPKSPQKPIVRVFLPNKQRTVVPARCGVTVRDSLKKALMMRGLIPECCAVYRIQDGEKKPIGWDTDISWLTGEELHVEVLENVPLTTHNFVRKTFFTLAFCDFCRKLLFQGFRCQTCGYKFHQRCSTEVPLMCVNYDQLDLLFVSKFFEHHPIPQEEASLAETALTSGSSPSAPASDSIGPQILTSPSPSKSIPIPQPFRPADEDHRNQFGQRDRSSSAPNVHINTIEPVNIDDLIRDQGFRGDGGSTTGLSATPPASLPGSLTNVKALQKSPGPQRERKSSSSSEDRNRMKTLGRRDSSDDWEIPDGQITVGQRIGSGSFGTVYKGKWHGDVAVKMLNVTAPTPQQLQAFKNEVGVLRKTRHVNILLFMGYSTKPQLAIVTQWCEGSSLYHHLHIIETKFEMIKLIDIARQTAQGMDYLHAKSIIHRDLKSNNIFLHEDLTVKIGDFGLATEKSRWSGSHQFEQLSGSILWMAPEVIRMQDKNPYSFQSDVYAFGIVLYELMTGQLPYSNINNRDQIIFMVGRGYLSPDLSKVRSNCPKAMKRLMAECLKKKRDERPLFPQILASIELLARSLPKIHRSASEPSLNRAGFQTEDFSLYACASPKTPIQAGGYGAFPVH
Nature of the assay: B-Raf Accelerated MEK ATPase assay (BRAMA). Type of assay: biochemical. The method in brief:
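Coupled-enzyme readout: ADP generated by MEK-mediated ATP hydrolysis, uncoupled from ERK phosphorylation, is linked to NADH oxidation through pyruvate kinase and lactate dehydrogenase.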

[4] abbreviates: COLO 205, 72 h, Table 2a, 3 days incubation, read-out: Activity in Colo205 Tumor Cells.
Setting [5] is: COLO 205, Table 2b, later runs, average for the one or more runs, categorized, read-out: IC50 for Colo205.
[6] abbreviates: SK-MEL-28, 72 h, Table 3a, 3 days incubation, read-out: Activity in SK-MEL-28 Tumor Cells.
[7] abbreviates: SK-MEL-28, Table 3b, later runs, average for the one or more runs, categorized, read-out: IC50 for SK-MEL-28.
[8] abbreviates: B-Raf Activity, Table 1a, highest pIC50 for the one or more runs, categorized.
[9] abbreviates: Table 1b, later runs, average pIC50 for the one or more runs, categorized, read-out: B-Raf pIC50 (converted).
The mark [10] stands for this setting: B-Raf pIC50, Table 1b, later runs, average pIC50 for the one or more runs, categorized.

Structures can show the parent of a compound that is named as a salt. Where two headings read alike, the source gives them in different places.

On to `CS(=O)(=O)N1CCN(c2nc(-c3cccc(NS(=O)(=O)c4c(F)cccc4F)c3F)c(-c3ccnc(N)n3)s2)CC1` [Example 100, N-(3-{5-(2-Amino-4-pyrimidinyl)-2-[4-(methylsulfonyl)-1-piperazinyl]-1,3-thiazol-4-yl}-2-fluorophenyl)-2,6-difluorobenzenesulfonamide], for which the IC50 in assay [1] (setting [4]) is 100 to 1000 nM; in assay [1] (setting [5]) it was 100 to 1000 nM; in assay [2] (setting [6]), 100 to 1000 nM; in assay [2] (setting [7]) it was 100 to 1000 nM; in assay [3] (setting [8]) it was < 100 nM; in assay [3] (setting [9]), 3.16 to 31.6 nM.
As to `Cn1ccnc1S(=O)(=O)Nc1cccc(-c2nc(C(C)(C)C)sc2-c2ccnc(N)n2)c1F` [Example 287, N-{3-[5-(2-amino-4-pyrimidinyl)-2-(1,1-dimethylethyl)-1,3-thiazol-4-yl]-2-fluorophenyl}-1-methyl-1H-imidazole-2-sulfonamide hydrochloride], the IC50 in assay [1] (setting [5]) is 100 to 1000 nM; in assay [2] (setting [7]), 100 to 1000 nM; in assay [3] (setting [9]), 3.16 to 31.6 nM.
Turning to `CC(C)c1nc(-c2cccc(NS(=O)(=O)c3cccc(F)c3)c2)c(-c2ccnc(NCC(=O)O)n2)s1` [Example 85, N-{4-[4-(3-{[(3-Fluorophenyl)sulfonyl]amino}phenyl)-2-(1-methylethyl)-1,3-thiazol-5-yl]-2-pyrimidinyl}glycine], the IC50 in assay [1] (setting [4]) was > 1000 nM; in assay [2] (setting [6]), > 1000 nM; in assay [3] (setting [8]) it was 100 to 1000 nM; in assay [3] (setting [10]) it was 31.6 to 1000 nM.
With `CC(C)c1nc(-c2ccc(F)c(NS(=O)(=O)c3c(F)cccc3F)c2)c(-c2ccnc(NCCN3CCCC3)n2)s1` [Example 164], the IC50 in assay [1] (setting [4]) is > 1000 nM; in assay [1] (setting [5]), 1000 to 10000 nM; in assay [2] (setting [6]), > 1000 nM; in assay [2] (setting [7]), 1000 to 10000 nM; in assay [3], > 1000 nM.
For `CC(C)(C)c1nc(-c2cccc(NS(=O)(=O)c3ccco3)c2F)c(-c2ccnc(N)n2)s1` [Example 231, N-{3-[5-(2-amino-4-pyrimidinyl)-2-(1,1-dimethylethyl)-1,3-thiazol-4-yl]-2-fluorophenyl}-2-furansulfonamide], the IC50 is < 100 nM in assay [1] (setting [5]), < 100 nM in assay [2] (setting [7]) and ≤ 3.16 nM in assay [3] (setting [10]).
`CC(C)CNc1nccc(-c2sc(C3CCOCC3)nc2-c2cccc(NS(=O)(=O)c3c(F)cccc3F)c2Cl)n1` [Example 18, N-{2-Chloro-3-[5-{2-[(2-methylpropyl)amino]-4-pyrimidinyl}-2-(tetrahydro-2H-pyran-4-yl)-1,3-thiazol-4-yl]phenyl}-2,6-difluorobenzenesulfonamide]: the IC50 was < 100 nM in assay [1] (setting [4]); < 100 nM in assay [1] (setting [5]); < 100 nM in assay [2] (setting [6]); < 100 nM in assay [2] (setting [7]); < 100 nM in assay [3] (setting [8]); ≤ 3.16 nM in assay [3] (setting [10]).
As to `Nc1nccc(-c2sc(C3CCOCC3)nc2-c2cccc(NS(=O)(=O)c3ccoc3)c2F)n1` [Example 281, N-{3-[5-(2-amino-4-pyrimidinyl)-2-(tetrahydro-2H-pyran-4-yl)-1,3-thiazol-4-yl]-2-fluorophenyl}-3-furansulfonamide], the IC50 in assay [1] (setting [5]) was < 100 nM; in assay [2] (setting [7]), < 100 nM; in assay [3] (setting [10]), ≤ 3.16 nM.
With `CC(C)(C)c1nc(-c2cccc(NS(=O)(=O)c3ccoc3)c2F)c(-c2ccnc(N)n2)s1` [Example 234, N-{3-[5-(2-amino-4-pyrimidinyl)-2-(1,1-dimethylethyl)-1,3-thiazol-4-yl]-2-fluorophenyl}-3-furansulfonamide], the IC50 in assay [1] (setting [5]) is < 100 nM; in assay [2] (setting [7]), < 100 nM; in assay [3] (setting [10]) it was ≤ 3.16 nM.
In the case of `CC(C)(C)c1nc(-c2cccc(NS(=O)(=O)c3cccs3)c2F)c(-c2ccnc(N)n2)s1` [Example 232, N-{3-[5-(2-amino-4-pyrimidinyl)-2-(1,1-dimethylethyl)-1,3-thiazol-4-yl]-2-fluorophenyl}-2-thiophenesulfonamide], the results for the IC50 in assay [1] (setting [5]), in assay [2] (setting [7]) and in assay [3] (setting [10]) were < 100 nM, < 100 nM and ≤ 3.16 nM, respectively.
